Test results: US4281009A, “Hydantoin derivatives” (Nippon Zoki Pharmaceutical Co., Ltd., priority 1978, dated 1981)

What was measured:
[1] = Acute toxicity test (LD50, Litchfield-Wilcoxon), mice; conditions: mouse, in vivo, ip, intraperitoneal
Method: (§1) Toxicity tests were carried out by intraperitoneal administration of the compound of the present invention to groups each comprising 10 ICR-strain mice and SD-strain rats. LD50 was calculated by the Litchfield-Wilcoxon method based on the number of death 72 hours after the administration.

ddY-strain male mice = assay: Effect of prolongation of sleeping time (hexobarbital); type: in vivo; conditions: for change in vivo at 100 mg/kg: 100 mg/kg intraperitoneal
Method: 7. Effect of prolongation of sleeping time:
Groups of mice each comprising 10 ddY-strain male mice were used. Sodium salt of hexobarbital was given intraperitoneally. Thereafter, the period of time in which righting reflex disappeared was measured. The effect was evaluated on the basis of prolongation of time of disappearance of righting reflex by the intraperitoneal administration of the compounds of the present invention as compared with control mice.

dd-strain male mice [2] = assay: Inhibitory effect on exploratory movements; type: in vivo; conditions: 150 mg/kg intraperitoneal, after 60 minutes
Method: 4.2. Inhibitory effect on exploratory movements:
Groups each comprising 16-35 dd-strain male mice were used. The compounds of the present invention were given intraperitoneally. After 60 minutes, exploratory movements for 15 minutes were measured with an exploratory movement recorder by a method of Tokyo Kyoiku University.

[3] = system: normal mice and SART stress mice; assay: Analgesic effect, tail pressure method (Randall-Selitto's device); type: in vivo, mice (ddY-strain male); conditions: Mus musculus; for change in vivo at 100 mg/kg / change in vivo at 200 mg/kg: ip; for change in vivo at 200 mg/kg: intraperitoneal 200 mg/kg; for change in vivo at 500 mg/kg: po, peroral 500 mg/kg
Method: 5.1 Tail pressure method:
Randall-Selitto's device for determining analgesic effect by pressure stimulation was used. […]. The compounds of the present invention or other comparative drugs were given thereto and analgesic effect was determined. The effect was judged by measuring pressure applied 60 minutes after the intraperitoneal administration of the compounds of the present invention. The pressure thus measured was divided by a pressure before the administration. The value thus obtained was compared with that of a control group (to which 10 ml./Kg of 0.5% sodium salt of carboxymethylcellulose or 0.5% Tween 80 was given). When the compounds of the present invention were given perorally and other comparative drugs were given, an average of the pressure at 30, 60, 90 and 120 minutes after the administration was employed for evaluating the effect.

dd-strain male mice [4] = assay: Antiulcerogenic effect on Takagi's restraint-plus-water-immersing ulcer; type: in vivo
Method: 6.1 Antiulcerogenic effect on Takagi's restraint-plus-water-immersing ulcer: Groups each comprising 8-26 dd-strain male mice were used. The tests were carried out according to a method of Takagi, et al. [Chem. Pharm. Bull.; 12, 465 (1964)]. Sum of length of diseased parts in the glandular stomach was measured and it was compared with that of control group. The compounds of the present invention or DPH was given intraperitoneally immediately before the restraint and immersion in water.

dd-strain male mice [5] = assay: Inhibitory effect on spontaneous motor activities (Animex method); type: in vivo; conditions: after 60 minutes
Method: 4.1 Inhibitory effect on spontaneous motor activities:
Groups each comprising 8-16 dd-strain male mice were used. The compounds of the present invention were given intraperitoneally. After 60 minutes, spontaneous motor activities for 15 minutes were measured by the Animex method.

[6] = Acute toxicity test (LD50, Litchfield-Wilcoxon), rats; conditions: rat, in vivo, ip, intraperitoneal
Method: as §1

Wistar-strain male rats = assay: Antiulcerogenic effect on Shay's ulcer (operative ulcer); type: in vivo; conditions: 10 times
Method: 6.2. Antiulcerogenic effect on Shay's ulcer (operative ulcer):
Tests were carried out by using groups of rats each comprising 5-10 Wistar-strain male rats according to Shay method [Shay Harry; Gastroenterology,; 5, 43 (1945)]. Ulcers in the anterior stomach were classified on the following basis:
2. 1-5 small ulcers (diameter of less than 3 mm)
3. 6 or more small ulcers or one big ulcer (diameter of more than 3 mm)
4. two or more big ulcers

dd-strain male mice [7] = assay: Inhibitory effect on Tremorine-induced tremor; type: in vivo; conditions: tremorine 10 mg/Kg
Method: 9. Inhibitory effect on Tremorine-induced tremor:
Groups of mice each comprising 10-40 dd-strain male mice were used. Effect of the compounds of the present invention on tremor caused by tremorine was examined. The compounds of the present invention or DPH was given intraperitoneally. 45 minutes thereafter, 10 mg/Kg of tremorine was given intraperitoneally for inducing the tremor.

SART stress mice = assay: Inhibitory effects on increase of heart rate and elongation of QRS-time in SART stress mice; type: in vivo, mice (dd-strain male); conditions: 100 mg/kg/day, 9th day, Average ± S.D.
Method: SART stress animals used in the tests described below were raised according to a method of Kita, et al. [Folia Pharmacol. Japan.: 71, 195-210 (1975)].
2. Inhibitory effects on increase of heart rate and elongation of QRS-time in stress animals:
Groups of mice each comprising 11 or 12 dd-strain male mice were divided into three groups in the same manner as above and heart rate and QRS-time were determined on the 9th day after initiation of the tests.

[8] = system: normal mice and SART stress mice; assay: Analgesic effect, acetic acid writhing method; type: in vivo; conditions: Mus musculus, sc, 100 mg/Kg subcutaneously
Method: 5.2. Acetic acid writhing method: 0.1 ml./10 g of isotonic sodium chloride solution containing 0.7% acetic acid was given intraperitoneally to groups of mice each comprising 5 normal mice and 5 SART stress mice to which SART stress had been applied for 8 days. Writhing syndromes number appeared for 15 minutes after the administration was measured. The effect was evaluated by giving 100 mg/Kg of the compounds of the present invention or DPH subcutaneously and comparing the writhing syndromes number of the mice with that of control mice.

[9] = system: normal mice and SART stress mice; assay: Analgesic effect, D'Amour-Smith method; type: in vivo, mice (ddY-strain male); conditions: Mus musculus; for responders at 200 mg/kg: ip, intraperitoneal 200 mg/kg; for responders at 500 mg/kg: po, peroral 500 mg/kg
Method: 5.3. D'Amour-Smith method:
Groups each comprising 10 ddY-strain male normal mice and SART stress mice to which SART stress had been applied for 4 days were used. The root of the tail of the mouse to which black ink was applied was irradiated with infrared rays for up to 15 seconds. Time required till escape response was observed was measured. The effect was shown by the ratio of the mice in which an average value of the response time at 30, 60, 90 and 120 minutes after the administration of the compounds of the present invention or other comparative drugs was prolonged to at least 2 times as long as the time before the administration.

[10] = system: normal rats and SART stress rats; assay: Analgesic effect, pain induced by Bradykinin; type: in vivo, rats (SD-strain male)
Method: 5.4 Method of measuring a pain induced by Bradykinin:
Groups each comprising 4-8 SD-strain male normal rats and SART stress rats to which SART stress had been applied for 4 days were used. The tests were carried out according to the method of Deffenu et al. [Deffenu, G., Pegrassi, L., & Fumachi. B.; J. Pharm. Pharmacol.; 18, 135 (1966)] and Blane method [Blane, G. F.; J. Pharm. Pharmacol.; 19, 367 (1967)]. The effect judged was shown by ratio of the rats in which the effect was recognized according to the method of Abe, et al. [Abe, Kaneko & Takagi; Folia Pharmacol. Japon.; 67, 9-14 (1971)].

[11] = system: spontaneously hypertensive rats (SHR); assay: Antihypertensive effect in spontaneously hypertensive rats; type: in vivo; conditions: 150 mg/Kg intraperitoneal, 60 minutes
Method: 8. Antihypertensive effect: Groups of rats each comprising 6-9 spontaneously hypertensive rats (SHR) were used. The compounds of the present invention or DPH was given intraperitoneally. The rate of antihypertension 60 minutes after the administration was determined.

SMILES: O=C1NC(=O)C(c2ccc(O)cc2)(c2cccs2)N1 (centres unmarked) [Compound 1, 5-(4-Hydroxyphenyl)-5-(2-thienyl)hydantoin]
- LD50 at 72 h ([1]; female): 2000 to 3000 mg/kg
- LD50 at 72 h ([1]; male): > 3000 mg/kg
- change in vivo at 100 mg/kg (ddY-strain male mice; Mus musculus, ip): 36.9%
- Inhibitory effect on exploratory movements (dd-strain male mice [2]): 33.2%
- change in vivo at 100 mg/kg ([3]; 1 h, SART stress mice, intraperitoneal 100 mg/kg, 60 minutes): 82.3%
- change in vivo at 100 mg/kg ([3]; 1 h, normal mice, intraperitoneal 100 mg/kg, 60 minutes): 26.9%
- inhibition in vivo at 150 mg/kg (dd-strain male mice [4]; Mus musculus, ip, 150 mg/kg intraperitoneal): 30.6%
- Inhibitory effect on spontaneous motor activities (dd-strain male mice [5]; 50 mg/kg intraperitoneal): 22.4%
- Inhibitory effect on spontaneous motor activities (dd-strain male mice [5]; 150 mg/kg intraperitoneal): 30.7%
- LD50 at 72 h ([6]; female): > 3000 mg/kg
- LD50 at 72 h ([6]; male): > 3000 mg/kg
- Antiulcerogenic effect on Shay's ulcer (operative ulcer) (Wistar-strain male rats; 100 mg/kg intraperitoneal): 14.6%
- Antiulcerogenic effect on Shay's ulcer (operative ulcer) (Wistar-strain male rats; 150 mg/kg intraperitoneal): 26.5%
- Inhibitory effect on Tremorine-induced tremor (dd-strain male mice [7]; 150 mg/kg intraperitoneal): 33%
- Heart rate (SART stress mice): 741 ± 39 min⁻¹
- QRS-time (SART stress mice): 13.9 ± 0.8 1/1000 sec
- inhibition in vivo at 100 mg/kg ([8]; SART stress mice): 20.9%
- inhibition in vivo at 100 mg/kg ([8]; normal mice): 2.4%
- responders at 200 mg/kg ([9]; SART stress mice): 30%
- responders at 200 mg/kg ([9]; normal mice): 20%

SMILES: CCC1(c2ccc(O)cc2)NC(=O)NC1=O (centres unmarked) [Compound 24, 5-Ethyl-5-(4-hydroxyphenyl)hydantoin]
- LD50 at 72 h ([1]; female): > 5000 mg/kg
- LD50 at 72 h ([1]; male): > 5000 mg/kg
- Effect of prolongation of sleeping time (ddY-strain male mice; 50 mg/kg intraperitoneal): 42.1%
- change in vivo at 100 mg/kg (ddY-strain male mice; Mus musculus, ip): 54.4%
- change in vivo at 300 mg/kg (ddY-strain male mice; Mus musculus, ip, 300 mg/kg intraperitoneal): 84.4%
- change in vivo at 200 mg/kg ([3]; 1 h, SART stress mice, 60 minutes): 31.2%
- change in vivo at 200 mg/kg ([3]; 1 h, normal mice, 60 minutes): 20.4%
- inhibition in vivo at 75 mg/kg (dd-strain male mice [4]; Mus musculus, ip, 75 mg/kg intraperitoneal): 11.9%
- inhibition in vivo at 125 mg/kg (dd-strain male mice [4]; Mus musculus, ip, 125 mg/kg intraperitoneal): 27.5%
- Analgesic effect ([10]; SART stress rats, intraperitoneal 100 mg/kg): 50%
- Analgesic effect ([10]; normal rats, intraperitoneal 100 mg/kg): 20%
- LD50 at 72 h ([6]; female): > 5000 mg/kg
- LD50 at 72 h ([6]; male): > 5000 mg/kg
- Antiulcerogenic effect on Shay's ulcer (operative ulcer) (Wistar-strain male rats; 50 mg/kg intraperitoneal): 17.5%
- Antiulcerogenic effect on Shay's ulcer (operative ulcer) (Wistar-strain male rats; 100 mg/kg intraperitoneal): 32.2%
- Inhibitory effect on Tremorine-induced tremor (dd-strain male mice [7]; 150 mg/kg intraperitoneal): 40%
- Heart rate (SART stress mice): 729 ± 58 min⁻¹
- QRS-time (SART stress mice): 13.3 ± 0.9 1/1000 sec

SMILES: O=C1NC(=O)C(c2ccccc2)(c2ccccc2)N1 [DPH, 5,5-diphenylhydantoin, reference compound]
- change in vivo at 100 mg/kg ([3]; SART stress mice, comparative drug intraperitoneal 100 mg/kg, average of 30, 60, 90 and 120 minutes): 18.4%
- change in vivo at 100 mg/kg ([3]; normal mice, comparative drug intraperitoneal 100 mg/kg, average of 30, 60, 90 and 120 minutes): -33.1%
- change in vivo at 500 mg/kg ([3]; SART stress mice, average of 30, 60, 90 and 120 minutes): 17.9%
- change in vivo at 500 mg/kg ([3]; normal mice, average of 30, 60, 90 and 120 minutes): 5.9%
- Antiulcerogenic effect on Takagi's restraint-plus-water-immersing ulcer (dd-strain male mice [4]; 50 mg/kg intraperitoneal): 7.8%
- inhibition in vivo at 100 mg/kg (dd-strain male mice [4]; Mus musculus, ip, 100 mg/kg intraperitoneal): 9%
- Analgesic effect ([10]; SART stress rats, peroral 500 mg/kg): 0%
- Analgesic effect ([10]; normal rats, peroral 500 mg/kg): 0%
- Rate of antihypertension [11]: 6.6%
- Inhibitory effect on Tremorine-induced tremor (dd-strain male mice [7]; 50 mg/kg intraperitoneal): 0%
- Inhibitory effect on Tremorine-induced tremor (dd-strain male mice [7]; 100 mg/kg intraperitoneal): 0%
- inhibition in vivo at 100 mg/kg ([8]; SART stress mice): -6%
- inhibition in vivo at 100 mg/kg ([8]; normal mice): -16.3%
- responders at 500 mg/kg ([9]; SART stress mice): 0%
- responders at 500 mg/kg ([9]; normal mice): 0%
